Earlier results, collected in US4966770A (priority 1989, dated 1990).

What does the source list for `C[C@]12C=CC(=O)C=C1CC[C@@H]1[C@@H]2C(=O)C[C@@]2(C)[C@H]1CC[C@]2(O)C(=O)CO` [prednisone]?
solubility in alcohol: slightly soluble in alcohol; solubility in water: very slightly soluble in water
